# In US6872689B1, “Water-dispersible agrochemical compositions” (Agform, Ltd., priority 1999, dated 2005):
# Format: physicochemical
# Description: 200 mls water was poured into a jacketed glass vessel and allowed to reach 25 C. A Grant recirculator was used to maintain the temperature at 25 C+/−1 C. A magnetic stirrer at a set speed was used to stir the water. The specified weight of granules was then added to the water and allowed to disperse for 30 seconds before a timer was started. A 2 mls sample was removed using a syringe after 5 minutes and filtered using a 0.45 micron syringe filter. The solution was then analysed to determine the active concentration using a HPLC method.
compound,measurement,setting,value
"COc1nc(C)nc(NC(=O)NS(=O)(=O)c2ccccc2Cl)n1 [Airmilled technical, Chlorsulfuron]",solubility in distilled water (in words),,not readily soluble
same,% active added to water that dissolved after 5 minutes,"chlorsulfuron, dilution rate 91 mgs a.i./L, distilled water, 25 C",<2%
